Test results published in the SangsterLogP compilation.

Test: method code SF, from DOI: 10.1007/bf01990207, PMID: 819289
Conditions: pH 7.4

| Structure (SMILES) | logD |
| --- | --- |
| [N-]=[N+]=CC(=O)NCC(=O)NN | -0.76 |
| CCCNC(=O)CNC(=O)C=[N+]=[N-] | -0.24 |
| CC(C)NC(=O)CNC(=O)C=[N+]=[N-] | -0.41 |
| CCNC(=O)CNC(=O)C=[N+]=[N-] | -0.62 |
| CCOC(=O)CNC(=O)C=[N+]=[N-] | -0.08 |
| [N-]=[N+]=CC(=O)NCC(=O)NCCO | -1.35 |
| CC(C)CNC(=O)CNC(=O)C=[N+]=[N-] | 0.37 |
| CNC(=O)CNC(=O)C=[N+]=[N-] | -0.87 |
| [N-]=[N+]=CC(=O)NCC(N)=O | -1.26 |

Test: method code SF-AS, from DOI: 10.1007/bf01990207, PMID: 819289
Conditions: pH 7.4

| logD | Structure (SMILES) |
| --- | --- |
| 1.51 | CCCCCCNC(=O)CNC(=O)C=[N+]=[N-] |
